Source: the supplement of paper PMC10307832

Tests used:
Assay in all cases: relative viability (nuclei count vs DMSO), 5 days (fraction); higher = more cells survive
[1] = compound: CNC(=O)c1cc(Oc2ccc(NC(=O)Nc3ccc(Cl)c(C(F)(F)F)c3)cc2)ccn1 [Sorafenib] + CC(C)C[C@H](NC(=O)[C@H](Cc1ccccc1)NC(=O)c1cnccn1)B(O)O [Bortezomib] (partner 0.002 µM)
Procedure, shortened: (§1)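 Relative viability was taken as the ratio of nuclei in treated wells to nuclei in vehicle wells. Lung cancer cell lines in 1536-well plates received compounds by pin tool one day after seeding, either one drug alone or a fixed anchor-drug dose plus five library-drug doses (not always all listed) in √10 steps. Nuclei were counted on 4× images after 5 days of treatment, and values are medians of duplicate plates.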

[2] = compound: CNC(=O)c1cc(Oc2ccc(NC(=O)Nc3ccc(Cl)c(C(F)(F)F)c3)cc2)ccn1 [Sorafenib] + CC1(C)CCC(c2ccc(Cl)cc2)=C(CN2CCN(c3ccc(C(=O)NS(=O)(=O)c4ccc(N[C@H](CCN5CCOCC5)CSc5ccccc5)c(S(=O)(=O)C(F)(F)F)c4)cc3)CC2)C1 [Navitoclax] (partner 0.5 µM)
Procedure, shortened: as §1

[3] = compound: CNC(=O)c1cc(Oc2ccc(NC(=O)Nc3ccc(Cl)c(C(F)(F)F)c3)cc2)ccn1 [Sorafenib] + CS(=O)(=O)N1CCN(Cc2cc3nc(-c4cccc5[nH]ncc45)nc(N4CCOCC4)c3s2)CC1 [Pictilisib] (partner 1 µM)
Procedure, shortened: as §1

[4] = compound: CNC(=O)c1cc(Oc2ccc(NC(=O)Nc3ccc(Cl)c(C(F)(F)F)c3)cc2)ccn1 [Sorafenib] + C[C@@H](Oc1cc(-c2cnn(C3CCNCC3)c2)cnc1N)c1c(Cl)ccc(F)c1Cl [Crizotinib] (partner 1 µM)
Procedure, shortened: as §1

[5] = compound: CNC(=O)c1cc(Oc2ccc(NC(=O)Nc3ccc(Cl)c(C(F)(F)F)c3)cc2)ccn1 [Sorafenib] + Nc1ncn([C@H]2C[C@H](O)[C@@H](CO)O2)c(=O)n1 [Decitabine] (partner 2 µM)
Procedure, shortened: as §1

Cell Line | relative viability ([1]; first compound 0.08 µM) | relative viability ([1]; first compound 0.253 µM) | relative viability ([1]; first compound 2.53 µM) | relative viability ([1]; first compound 8 µM) | relative viability ([2]; first compound 0.08 µM) | relative viability ([2]; first compound 0.253 µM) | relative viability ([2]; first compound 2.53 µM) | relative viability ([2]; first compound 8 µM) | relative viability ([3]; first compound 0.08 µM) | relative viability ([3]; first compound 0.253 µM) | relative viability ([3]; first compound 2.53 µM) | relative viability ([3]; first compound 8 µM) | relative viability ([4]; first compound 0.08 µM) | relative viability ([4]; first compound 0.253 µM) | relative viability ([4]; first compound 2.53 µM) | relative viability ([4]; first compound 8 µM) | relative viability ([5]; first compound 0.08 µM) | relative viability ([5]; first compound 0.253 µM) | relative viability ([5]; first compound 2.53 µM) | relative viability ([5]; first compound 8 µM)
NCI-H3122 | 0.993 | 0.984 | 1.06 | 0.952 | 1.04 | 1.06 | 1.03 | 0.753 | 0.762 | 0.671 | 0.604 | 0.234 | 0.29 | 0.317 | 0.326 | 0.293 | 0.384 | 0.467 | 0.375 | 0.189
NCI-H2009 | 0.898 | 0.689 | 0.912 | 0.522 | 1.11 | 1.02 | 1.1 | 0.937 | 0.866 | 0.621 | 0.752 | 0.265 | 0.972 | 0.921 | 0.915 | 0.603 | 0.375 | 0.394 | 0.315 | 0.227
SK-LU-1 | 1.16 | 1.07 | 1.11 | 0.735 | 0.926 | – | 0.729 | 0.207 | 0.61 | 0.439 | 0.579 | 0.412 | 0.956 | – | 0.79 | 0.309 | 0.605 | 0.564 | 0.578 | 0.396
EPLC-272H | 0.945 | 0.872 | 0.959 | 0.696 | 1.22 | 1.14 | 1.04 | 0.96 | 0.393 | 0.286 | 0.45 | 0.299 | – | 0.819 | – | 0.855 | 0.42 | 0.395 | 0.388 | 0.284
NCI-H838 | 0.875 | – | 1.15 | 0.651 | 1.23 | 1.26 | 1.29 | – | 0.516 | 0.412 | 0.77 | 0.38 | 0.931 | 0.946 | 0.991 | 0.903 | 0.507 | 0.454 | 0.429 | 0.373
